Results published in patent US20250179057A1, “MEK IMMUNE ONCOLOGY INHIBITORS AND THERAPEUTIC USES THEREOF” (Immuneering Corporation, priority 2022, published 2025).

Legend:
[1] = test system: phospho-ERK in A549 (KRAS G12S) cells; assay: Cell-based pERK (pERK:tERK) in A549 cells; design: A549-pERK 10 uM, 2 h: unit not given here; conditions: for A549-pERK (10 nM, 2 h): phospho- to total protein ratio normalized to DMSO control (Table 9); for activity at 0.01 µM: Homo sapiens, A549, 2 h, read-out: A549-pERK (10 nM, 2 h)
Protocol: Media components, reagents and buffers for Western Blot: All cell culture media components were obtained from ThermoFisher Scientific. […] Laemmli sample loading 4× buffer (ThermoFisher Scientific, Cat No. NP0007). MOPS/SDS electrophoresis running buffer (GenScript, Cat No. M00138).
Subculture conditions: Adherent cells were grown to approximately 90% confluency, culture medium was aspirated and the cell layer was rinsed with PBS. […] Eight mL media was added, cells were spun down at 1000×g for 5 minutes. Cell pellet was re-suspended in 10 mL media and an appropriate volume was inoculated into a new culture flask.
Compound (drug) treatment: Cells were plated in a 6-well plate at a density of 250,000-300,000 cells/well in 3 mL media and incubated 37° C. in a humidified, 5% CO2 incubator. […] These solutions were added to the cells (3 uL/well), mixed by swirling the plate, and incubated at 37° C. in a humidified, 5% CO2 incubator for 2 hours.
Cell lysis and protein estimation: Cells were washed with PBS, and scraped in 50 μL of lysis buffer containing protease and phosphatase inhibitors. Cell lysates were stored at −20° C. Cell lysates were thawed and spun at 12,000 rpm for one minute, 3 ul of the supernatant was added to 500 μL of Coomassie blue reagent following by 500 μL of water. […] Protein standards were used (0-20 mg/mL) to calculate protein concentrations of test samples.
All samples were heated at 95° C. for 5 minutes, cooled to room temperature and spun down. […] After the run, gel was removed and protein transfer was done using iBlot for 7 minutes, as per manufacturer's recommendations. After the transfer, nitrocellulose membrane was incubated on a shaker in 5 mL of blocking buffer at room temperature for 1 hr. The blot was then incubated overnight on a shaker in 5 ml of blocking buffer containing 0.2% Tween-20 and primary antibody, at room temperature. Anti-phospho-STAT3 antibody was used at a dilution of 1:500, the other 3 primary antibodies were used at a dilution of 1:1000.
Next day, the blot was washed 3 times for 10 min each with 10 mL of TBST followed by incubation on a shaker in 5 ml of blocking buffer containing 0.2% Tween-20 and 0.5 ul of the IRDye labeled secondary antibodies, diluted 1:10000, at room temperature for 1 hr. The blot was then washed 3 times for 10 min each with 10 mL of TBST and dried between sheets of paper towels. Imaging was done using LICOR's Odyssey imaging system, quantitation was done using their software, Image Studio version 3.1.
(§1) Materials and Methods: A549 or A375 cells were seeded in 6-well plates at an appropriate seeding density on day 0. On day 2 or 3, after checking the health and confluency of cells, the media was aspirated and replaced with 1 mL media containing a predetermined concentration of compound and incubated for 2 hours. After 2 hours, the media was aspirated, and the cells washed 2 times with cold PBS. Cells were lysed on ice, with 50 uL 1×CST lysis buffer +1 mM PMSF for 5 minutes. After 5 minutes, cells were removed using a scraper and transferred to cold 1.5 mL tubes, and centrifuged for 10 min, 4° C., 14,000×g. Supernatant was gently removed and snap frozen in liquid nitrogen. Protein concentration of the lysate was determined using Bradford Reagent (analyzed using SpectraMax M2E) and diluted to 1 mg/mL or pERK or 1.5 mg/mL for pMEK analysis. […] All dilutions were in Milk-free antibody diluent.
They were grown in T75 flasks in DMEM containing 10% FBS and Pen-Strep. at 37° C. in a humidified, 5% CO2 incubator. The adherent cells were grown to about 90% confluency, culture medium was aspirated, and the cell layer was rinsed with PBS. […] Eight mL media was added, cells were spun down at 1000 g for 5 minutes. Cell pellet was re-suspended in 10 mL media and an appropriate volume was inoculated into a new culture flask. Cells were plated in a 6-well plate at a density of 250,000-300,000 cells/well in 3 mL media and incubated 37° C. in a humidified, 5% CO2 incubator.

[2] = test system: phospho-MEK in A549 cells; assay: Cell-based pMEK (pMEK:tMEK, CRAF bypass) in A549 cells; conditions: 2 h, pMEK to total MEK normalized to DMSO control
Protocol: as §1
(§2) A549 or […] cells were treated in duplicate for two hours with compounds at varying concentrations. After two hours, the cells were lysed, snap frozen, and stored at −80° C. After storage, the lysate was quantified with the Bradford assay. Before the lysates were prepared to run on the Jess, the lysates were diluted to 1 mg/mL for pERK analysis and 1.5 mg/mL pMEK analysis using quantitative Western blotting. ERK and MEK phosphorylation levels were estimated by taking the ratio of phospho-protein to total protein and normalizing to the DMSO control.
as §2

[3] = PAMPA (pH 7.4); type: in vitro ADME; conditions: PAMPA; pH = 7.4 (Table 14)

Structure (SMILES) | A549-pERK (10 nM, 2 h) ([1]; 2 h) | A549-CRAF BP 100 nM, 2 h [2] | other results
CNS(=O)(=O)Nc1cccc(Cc2c(CNc3cncs3)c3ccc(OC(=O)N(C)C)cc3oc2=O)c1F [Compound 91] | 74.6 | 84.2 | 
CNS(=O)(=O)Nc1cccc(Cc2c(CN(C)c3ccc(Cl)cc3)c3ccc(OC(=O)N(C)C)cc3oc2=O)c1F [Compound 97] | 56.5 | 52.1 (mean, n = 2) | 
CCS(=O)(=O)Nc1cccc(Cc2c(C)c3ccc(OC(=O)N(C)C)cc3oc2=O)c1F [Compound 107] | 18.0 | 39.9 | 
CNS(=O)(=O)Nc1cccc(Cc2c(C)c3cc(C)c(OC(=O)N(C)C)cc3oc2=O)c1F [Compound 108] | 5.78 | 47.9 (mean, n = 2) | 
CNS(=O)(=O)Nc1cccc(Cc2c(C)c3cc(Cl)c(OC(=O)N(C)C)cc3oc2=O)c1F [Compound 109] | 4.51 | 41.9 (mean, n = 2) | 
CNS(=O)(=O)Nc1nccc(Cc2c(C)c3cc(C)c(OC(=O)N(C)C)cc3oc2=O)c1F [Compound 110] | 5.92 | 56.6 (mean, n = 2) | 
CNS(=O)(=O)Nc1nccc(Cc2c(C)c3cc(Cl)c(OC(=O)N(C)C)cc3oc2=O)c1F [Compound 111] | 4.63 | 48.6 (mean, n = 2) | 
Cc1c(Cc2ccnc(NS(=O)(=O)C3CC3)c2F)c(=O)oc2cc(OC(=O)N(C)C)ccc12 [Compound 112] | 46.3 | 52.9 (mean, n = 2) | 
Cc1c(Cc2cccc(NS(=O)(=O)C3CC3)c2F)c(=O)oc2cc(OC(=O)N(C)C)ccc12 [Compound 113] | 24.7 | 48.0 (mean, n = 2) | 
Cc1c(Cc2ccnc(NS(=O)(=O)C(C)C)c2F)c(=O)oc2cc(OC(=O)N(C)C)ccc12 [Compound 114] | 36.6 | 59.9 (mean, n = 3) | 
Cc1c(Cc2cccc(NS(=O)(=O)C(C)C)c2F)c(=O)oc2cc(OC(=O)N(C)C)ccc12 [Compound 115] | 13.5 | 39.2 (mean, n = 2) | 
Cc1c(Cc2cccc(NS(=O)(=O)C3CCC3)c2F)c(=O)oc2cc(OC(=O)N(C)C)ccc12 [Compound 118] | 21.1 | 39.1 (mean, n = 2) | 
CCS(=O)(=O)Nc1nccc(Cc2c(C)c3ccc(OC(=O)N(C)C)cc3oc2=O)c1F [Compound 119] | 64.8 | 66.1 | 
Cc1c(Cc2ccnc(NS(=O)(=O)C3CCC3)c2F)c(=O)oc2cc(OC(=O)N(C)C)ccc12 [Compound 125] | 54.4 | 41.7 | 
CNS(=O)(=O)Nc1cccc(Cc2c(CN(C)C)c3ccc(OC(=O)N4CCC4)cc3oc2=O)c1F [Compound 128] | 66.3 | 37.7 | 
CCS(=O)(=O)Nc1cccc(Cc2c(CN(C)C)c3cc(Cl)c(OC(=O)N(C)C)cc3oc2=O)c1F [Compound 132] | 62.6 | 57.8 | 

Structure (SMILES) | A549-pERK (10 nM, 2 h) ([1]; 2 h) | A549-CRAF BP 100 nM, 2 h [2] | other results
CNS(=O)(=O)Nc1nccc(Cc2c(CN(C)C)c3cc(F)c(OC(=O)N(C)C)cc3oc2=O)c1F [Compound 140] | 65.0 | 70.3 | 
CCS(=O)(=O)Nc1cccc(Cc2c(CN3CCNCC3)c3cc(Cl)c(OC(=O)N(C)C)cc3oc2=O)c1F [Compound 147] | 21.7 | 46.4 | pERK:tERK (10 nM 2 h A549) ([1]; Phospho-ERK Screen in A549 (KRAS G12S), head 10 nM 2 h, title 10 μM for 2 hours): 28 (n = 2)
CCS(=O)(=O)Nc1nccc(Cc2c(CN(C)C)c3ccc(OC(=O)N(C)C)cc3oc2=O)c1F [Compound 148] | 49.6 | 56.5 | 
CN(C)C(=O)Oc1ccc2c(CN3CCNCC3)c(Cc3ccnc(NS(=O)(=O)C4CC4)c3F)c(=O)oc2c1 [Compound 150] | 47.4 | 90.2 | 
CNS(=O)(=O)Nc1cccc(Cc2c(CN3CC4(CCC4)C3)c3ccc(OC(=O)N(C)C)cc3oc2=O)c1F [Compound 153] | 50.2 | 54.1 | 
C#CCNCCc1c(Cc2cccc(NS(=O)(=O)NC)c2F)c(=O)oc2cc(OC(=O)N(C)C)ccc12 [Compound 183] | 32.4 | 65.9 (mean, n = 2) | A549-pERK 10 uM, 2 h ([1]; 10 uM, 2 h, phospho- to total protein ratio normalized to DMSO control): 0.82
CN(C)Cc1c(Cc2cccc(NS(=O)(=O)CC(F)(F)F)c2F)c(=O)oc2cc(OC(=O)N(C)C)c(F)cc12 [Compound 236] |  |  | activity at 0.01 µM [1]: 94.1%; Papp at 4 h, 50 μM [3]: 52 ×10⁻⁶ cm/s
CCN(C)Cc1c(Cc2cccc(NS(=O)(=O)CC(F)(F)F)c2F)c(=O)oc2cc(OC(=O)N(C)C)c(F)cc12 [Compound 237] |  |  | activity at 0.01 µM [1]: 114%; Papp at 4 h, 50 μM [3]: 50 ×10⁻⁶ cm/s
CN(C)C(=O)Oc1cc2oc(=O)c(Cc3cccc(NS(=O)(=O)CC(F)(F)F)c3F)c(CN3CCNCC3)c2cc1F [Compound 239] |  |  | activity at 0.01 µM [1]: 96.1%; Papp at 4 h, 50 μM [3]: 0.8 ×10⁻⁶ cm/s
CCS(=O)(=O)Nc1cccc(Cc2c(CN(C)CCF)c3ccc(OC(=O)N(C)C)cc3oc2=O)c1F [Compound 241] |  |  | activity at 0.01 µM [1]: 96.6%; Papp at 4 h, 50 μM [3]: 69 ×10⁻⁶ cm/s
CCS(=O)(=O)Nc1cccc(Cc2c(CN(C)CC(F)F)c3ccc(OC(=O)N(C)C)cc3oc2=O)c1F [Compound 243] |  |  | activity at 0.01 µM [1]: 86.7%; Papp at 4 h, 50 μM [3]: 48 ×10⁻⁶ cm/s
CCS(=O)(=O)Nc1cccc(Cc2c(CN(C)C)c3ccc(OC(=O)N(C)C)cc3oc2=O)c1Cl [Compound 249, 3-(2-chloro-3-(ethylsulfonamido)benzyl)-4-((dimethylamino)methyl)-2-oxo-2H-chromen-7-yl dimethylcarbamate] |  |  | Papp at 4 h, 50 μM [3]: 64 ×10⁻⁶ cm/s
CNS(=O)(=O)Nc1cccc(Cc2c(CN(C)C)c3c(OC)cc(OC(=O)N(C)C)cc3oc2=O)c1F [Compound 252, 4-((dimethylamino)methyl)-3-(2-fluoro-3-((N-methylsulfamoyl)amino)benzyl)-5-methoxy-2-oxo-2H-chromen-7-yl dimethylcarbamate] |  |  | Papp at 4 h, 50 μM [3]: 15 ×10⁻⁶ cm/s
CNS(=O)(=O)Nc1cccc(Cc2c(CN(C)C)c3c(C)cc(OC(=O)N(C)C)cc3oc2=O)c1F [Compound 253, 4-((dimethylamino)methyl)-3-(2-fluoro-3-((N-methylsulfamoyl)amino)benzyl)-5-methyl-2-oxo-2H-chromen-7-yl dimethylcarbamate] |  |  | Papp at 4 h, 50 μM [3]: 48 ×10⁻⁶ cm/s
CCS(=O)(=O)Nc1cccc(Cc2c(CN3CCNCC3)c3ccc(OC(=O)N(C)C)cc3oc2=O)c1Cl [Compound 258, 3-(2-chloro-3-(ethylsulfonamido)benzyl)-2-oxo-4-(piperazin-1-ylmethyl)-2H-chromen-7-yl dimethylcarbamate] |  |  | Papp at 4 h, 50 μM [3]: 1 ×10⁻⁶ cm/s
